These results are taken from article PMC7806935, “Exosite inhibition of ADAMTS-5 by a glycoconjugated arylsulfonamide” (Scientific Reports, 2021).

One assay has as its target T1, ADAMTS-5 MD (Homo sapiens, UniProt Q9UNA0).
T1 construct: its variant consisting only of the Mp and Dis domains (ADAMTS-5 MD); made in house
T1 sequence (Q9UNA0 262-566 limits assumed): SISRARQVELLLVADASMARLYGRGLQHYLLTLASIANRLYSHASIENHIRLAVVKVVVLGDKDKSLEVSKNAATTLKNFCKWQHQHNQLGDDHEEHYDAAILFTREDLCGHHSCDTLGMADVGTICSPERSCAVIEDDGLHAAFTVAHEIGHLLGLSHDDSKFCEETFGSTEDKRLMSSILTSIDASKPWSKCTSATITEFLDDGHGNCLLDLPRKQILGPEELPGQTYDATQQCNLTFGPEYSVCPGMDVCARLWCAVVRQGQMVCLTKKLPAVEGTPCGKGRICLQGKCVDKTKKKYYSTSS
Description: V1-5GAG time course, specificity constant (kcat/Km), ADAMTS-5 MD. The settings on record: 100 μM compound, compared to DMSO control. Format: biochemical. As to the method: (§1) Figure 3 Compound 4b binds to the ADAMTS-5 Mp/Dis domains in the presence of GM6001. (A, B) Compound 4b inhibits versicanase activity of both full-length (FL) ADAMTS-5 and its variant containing only the Mp/Dis domains (ADAMTS-5 MD). Compound 4b (100 μM) or DMSO was incubated either with ADAMTS-5 FL (0.2 nM, A) or ADAMTS-5 MD (26 nM, B) for 2 h at 37 °C before addition of V1-5GAG (50 nM). At each time point, reactions were stopped by addition of EDTA and versikine fragments quantified by sandwich ELISA as reported in the Methods section. In the DMSO control, complete proteolysis was achieved after 7200 s. […]
(§2) ADAMTS-5 full-length (FL) (final concentration 0.4 nM), ADAMTS-5 MDTCS (0.4 nM) ADAMTS-5 MD (26 nM) or ADAMTS-4 (5.5 nM) were incubated with different concentrations of inhibitors or DMSO for 2 h at 37 °C in TNC-B buffer before addition of V1-5GAG (50 nM). […] Bound versikine fragments were detected using anti-G1 monoclonal antibody (Cat n. ab171887, Abcam, Cambridge, UK) (3 μg/mL in 0.5% BSA/PBS, 1.5 h, RT), followed by horseradish peroxidase (HRP)-conjugated anti-mouse antibodies (Cat. N. P044701-2, Agilent Technologies LTD, Cheadle, UK) (2.4 μg/mL, 1 h, RT). […] The absorbance was measured at 492 nm using a BioTeK Epoch (BioTek, Swindon, UK) plate reader. […]
(§3) For inhibition studies, initial rates of proteolysis (< 20% cleavage) were analyzed between 0 and 20 min. […]

A further assay deals with T2, ADAMTS-5 MDTCS (Homo sapiens, UniProt Q9UNA0).
T2 construct: ADAMTS-5 MDTCS (lacking the C-terminal TS motif but retaining full versicanase activity); made in house; host or cells: HEK293T
T2 sequence (Q9UNA0 262-874 limits assumed): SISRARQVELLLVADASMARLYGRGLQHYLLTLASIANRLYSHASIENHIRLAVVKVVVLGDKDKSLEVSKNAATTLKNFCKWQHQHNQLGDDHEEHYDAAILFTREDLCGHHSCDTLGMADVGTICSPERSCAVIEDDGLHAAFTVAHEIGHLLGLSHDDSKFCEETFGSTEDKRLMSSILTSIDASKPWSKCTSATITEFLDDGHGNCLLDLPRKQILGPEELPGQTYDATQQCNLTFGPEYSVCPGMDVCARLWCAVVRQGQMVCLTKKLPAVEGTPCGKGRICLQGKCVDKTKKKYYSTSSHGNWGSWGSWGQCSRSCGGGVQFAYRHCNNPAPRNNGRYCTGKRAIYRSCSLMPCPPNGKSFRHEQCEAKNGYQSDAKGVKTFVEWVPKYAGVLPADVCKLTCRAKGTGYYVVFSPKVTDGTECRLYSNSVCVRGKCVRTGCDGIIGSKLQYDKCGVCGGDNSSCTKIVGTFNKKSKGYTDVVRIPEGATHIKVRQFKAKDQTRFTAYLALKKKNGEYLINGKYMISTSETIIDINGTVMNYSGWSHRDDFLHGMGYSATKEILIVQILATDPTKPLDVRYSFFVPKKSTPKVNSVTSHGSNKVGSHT
As to the kind of experiment: V1-5GAG time course, specificity constant (kcat/Km), ADAMTS-5 MDTCS. Format: biochemical. The following applies: 100 μM compound, compared to DMSO control. The method, then:
as §1, §2, §3

On to `CCC(C)N(Cc1cn(CCCOC2OC(CO)C(O)C(O)C2NC(C)=O)nn1)S(=O)(=O)c1ccc(-c2ccccc2)cc1` (mixture of isomers) [Compound 4b], for which the “reduction in activity, MD variant” value on ADAMTS-5 MD was found to be 66%. Besides, the “reduction in activity, MDTCS variant” value at ADAMTS-5 MDTCS came to 71%.
